# Experimental data taken from paper PMC8844822, “SARM1 is a multi-functional NAD(P)ase with prominent base exchange activity, all regulated bymultiple physiologically relevant NAD metabolites” (iScience, 2022).
# How the values were obtained:
# [1] = biological target: T1, hSARM1 full length (Homo sapiens, UniProt Q6SZW1); assay: Base exchange reactions at neutral pH (HPLC); assay type: biochemical; conditions: for increase of all hSARM1 activities by trigger (plateau): hSARM1 full length, NMN 0.2 mM or VMN 0.05 mM, NAD or NADP 250 μM with or without bases
# T1 construct: Human recombinant SARM1 full length proteins (wild-type and E642A mutant); made in house
# T1 sequence (Q6SZW1 28-724): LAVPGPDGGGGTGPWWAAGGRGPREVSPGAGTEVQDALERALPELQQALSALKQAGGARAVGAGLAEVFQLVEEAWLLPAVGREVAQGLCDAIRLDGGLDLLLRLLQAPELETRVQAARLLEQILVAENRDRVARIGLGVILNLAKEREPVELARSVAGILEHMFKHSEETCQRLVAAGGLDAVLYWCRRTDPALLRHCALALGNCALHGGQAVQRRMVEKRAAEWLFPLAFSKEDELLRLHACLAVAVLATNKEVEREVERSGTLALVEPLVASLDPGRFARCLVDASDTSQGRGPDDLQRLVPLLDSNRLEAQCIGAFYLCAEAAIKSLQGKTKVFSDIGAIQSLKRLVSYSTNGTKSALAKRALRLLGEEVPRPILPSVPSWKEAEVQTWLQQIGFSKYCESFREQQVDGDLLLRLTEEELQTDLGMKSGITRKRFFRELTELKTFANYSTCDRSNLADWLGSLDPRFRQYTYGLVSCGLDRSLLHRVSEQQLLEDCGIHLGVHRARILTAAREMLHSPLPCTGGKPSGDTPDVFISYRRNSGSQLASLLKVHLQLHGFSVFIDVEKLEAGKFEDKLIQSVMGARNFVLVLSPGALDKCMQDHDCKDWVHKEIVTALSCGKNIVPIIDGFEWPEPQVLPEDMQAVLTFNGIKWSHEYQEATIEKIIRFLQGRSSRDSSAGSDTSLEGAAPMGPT
# Method: (§1) Multiple time stops from individual assays as above were analyzed for linearity, then extents of hydrolysis (white bars), cyclization (red bars), or base exchange (black bars) were calculated from each corresponding product as shown in Figure 1B and STAR methods. […] See also Figures S3–S5, and Table S1
# (§2) hSARM1 species were routinely assayed by the NAD/NADH-Glo^TM Assay (Promega) while both Aplysia cyclase and CD38 were assayed by fluorometry using ϵNAD ([Orsomando et al., 2000]). […] Other reagents used in addition to, or in place of those above are detailed in text or in figure legends, for example metal ions, free bases, dinucleotide analogues, mononucleotides, and ribosides. Assays were all carried out at 25°C except for temperature studies. Reactions were stopped by HClO4/K2CO3 and analysed by C18-HPLC as reported ([Mori et al., 2014]). Only the acid labile NADH and NADPH were treated with 1 N NaOH and neutralized using 1:1 vol of 1.73 M KH2CO3 while the highly hydrophobic metabolites vacor, VAD, VMN and VR, were analysed by a modified C18-HPLC method ([Buonvicino et al., 2018]). Reaction products were quantified from peak areas (see Figure 2A) based on coelution with standards (except for cyclic products from NAD analogues that were not available and were attributed based on UV-spectra and retention times as predicted). Rates were calculated as follows. Hydrolysis and cyclization were measured from product generation from the respective individual dinucleotide substrate used, e.g., free and cyclic ADP-ribosyl moieties from NAD (Figure 1B). A basal value for hydrolysis/cyclization was taken as sum of these latter two products. In addition to that value, base exchange or transglycosidation was calculated from the expected dinucleotide analog formed in the presence of the corresponding free base, e.g., AcPyrAD from AcPyr and NAD.
# [2] = biological target: T2, Aplysia californica ADP ribosyl cyclase (Aplysia californica, UniProt P29241); conditions: for use as substrate (consumption rate): dinucleotide 250 μM, 25°C, 2–6 h; for effect of metal ion on activity: metal ions 1 mM
# T2 sequence (P29241 25-282): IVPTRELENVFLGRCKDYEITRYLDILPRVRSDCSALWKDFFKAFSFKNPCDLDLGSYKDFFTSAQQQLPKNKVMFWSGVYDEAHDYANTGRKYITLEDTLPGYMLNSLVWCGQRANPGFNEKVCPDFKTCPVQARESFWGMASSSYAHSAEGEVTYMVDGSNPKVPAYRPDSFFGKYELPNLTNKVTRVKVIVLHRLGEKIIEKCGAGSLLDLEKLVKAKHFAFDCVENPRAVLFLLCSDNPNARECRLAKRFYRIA
# Method: as §2
# (§3) The kinetic parameters were calculated from initial rates obtained from replicates via best-fitting analysis using the following Equation 1 for CD38 and Aplysia cyclase, or Equation 2 for hSARM1 SAM-TIR, or Equation 3 for hSARM1 full length(Equation 1) V =Vmax[S]/Km+[S] […] In that case, the resulting single curves were fit to Equation 3 as above to evaluate any competition between NMN and the substrate used (see Table 1).
# [3] = biological target: T3, hCD38 (Homo sapiens, UniProt P28907); assay: NAD(P)ase activity by HPLC (kinetics, substrates, metal ions); assay type: biochemical; conditions: for use as substrate (consumption rate): dinucleotide 250 μM, 2–6 h; for effect of metal ion on activity: metal ions 1 mM
# T3 construct: a soluble fragment Val43-Ile300 with 6x-His tag at C terminus; 6xHis (C); purchased R&D Systems
# T3 sequence (P28907 43-300): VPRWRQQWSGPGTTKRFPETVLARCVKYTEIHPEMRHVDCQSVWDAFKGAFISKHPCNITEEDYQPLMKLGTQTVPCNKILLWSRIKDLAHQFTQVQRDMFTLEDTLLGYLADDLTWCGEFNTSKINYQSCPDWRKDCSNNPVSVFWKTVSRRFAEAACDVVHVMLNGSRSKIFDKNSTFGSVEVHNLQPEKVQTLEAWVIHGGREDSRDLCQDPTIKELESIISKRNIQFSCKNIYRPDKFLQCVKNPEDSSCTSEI
# Method: as §2, §3
# [4] = biological target: T1, hSARM1 full length; assay: as above; assay type: biochemical; conditions: hSARM1; for use as substrate (consumption rate): dinucleotide 250 μM, 25°C, 2–6 h; for effect of metal ion on activity: metal ions 1 mM
# Method: as §2, §3
# [5] = biological target: T3, hCD38; assay: Base exchange reactions at neutral pH (HPLC); assay type: biochemical; conditions: NADP […] alone or + AcPyr 2 mM / Vacor 0.5 mM / Na 2 mM
# Method: as §1, §2
# [6] = hSARM1 full length +NMN 0.2 mM, NAD […]
# [7] = hSARM1 full length +NMN 0.2 mM, NADP […]
# [8] = hSARM1 full length +VMN 0.05 mM, NAD […]
# [9] = hSARM1 full length +VMN 0.05 mM, NADP […]
compound,measurement,setting,value
"NC(=O)c1ccc[n+]([C@@H]2O[C@H](COP(=O)([O-])O)[C@@H](O)[C@H]2O)c1 [NMN, nicotinamide mononucleotide]","cyclization, share of products",[1]; [6],9.51%
same,"hydrolysis, share of products",[1]; [6],90.49%
same,rate,"[1]; hSARM1 full length +NMN 0.2 mM, NAD […] alone or + free base",187.9 ±26.9 mU/mg
same,rate (relative fold),"[1]; hSARM1 full length +NMN 0.2 mM, NAD […], relative to NAD alone without trigger",8.61±1.23 fold
same,"cyclization, share of products",[1]; [7],~ 0.05%
same,"hydrolysis, share of products",[1]; [7],99.95%
same,rate,"[1]; hSARM1 full length +NMN 0.2 mM, NADP […] alone or + free base",117.3 ±4.72 mU/mg
same,rate (relative fold),"[1]; hSARM1 full length +NMN 0.2 mM, NADP […], relative to NADP alone without trigger",7.98 ±0.321 fold
same,increase of all hSARM1 activities by trigger (plateau),[1],8- to 10 fold
"NC(=O)c1ccc[n+]([C@H]2O[C@H](COP(=O)([O-])OP(=O)(O)OC[C@H]3O[C@@H](n4cnc5c(N)ncnc54)[C@H](O)[C@@H]3O)[C@@H](O)[C@H]2O)c1 [αNAD, alpha-NAD]",use as substrate (consumption rate),[2],no activity
same,use as substrate (consumption rate),"[3]; hCD38, 25°C",no activity
same,use as substrate (consumption rate),[4],no activity
NC(=O)C1=CN([C@@H]2O[C@H](COP(=O)(O)OP(=O)(O)OC[C@H]3O[C@@H](n4cnc5c(N)ncnc54)[C@H](OP(=O)(O)O)[C@@H]3O)[C@@H](O)[C@H]2O)C=CC1 [NADPH],use as substrate (consumption rate),[2],negligible usage
same,use as substrate (consumption rate),"[3]; hCD38, 25°C",negligible usage
same,use as substrate (consumption rate),[4],negligible usage
NC(=O)C1=CN([C@@H]2O[C@H](COP(=O)(O)OP(=O)(O)OC[C@H]3O[C@@H](n4cnc5c(N)ncnc54)[C@H](O)[C@@H]3O)[C@@H](O)[C@H]2O)C=CC1 [NADH],use as substrate (consumption rate),[2],negligible usage
same,use as substrate (consumption rate),"[3]; hCD38, 25°C",negligible usage
same,use as substrate (consumption rate),[4],negligible usage
"Nc1ncnc2c1ncn2[C@@H]1O[C@H](COP(=O)(O)OP(=O)([O-])OC[C@H]2O[C@@H]([n+]3cccc(CNC(=O)Nc4ccc([N+](=O)[O-])cc4)c3)[C@H](O)[C@@H]2O)[C@@H](O)[C@H]1O [VAD, vacor adenine dinucleotide]",use as substrate (consumption rate),[2],no activity
same,use as substrate (consumption rate),"[3]; hCD38, 25°C",no activity
same,use as substrate (consumption rate),[4],no activity
nicotinic acid adenine dinucleotide phosphate [NaADP],use as substrate (consumption rate),[2],negligible usage
same,use as substrate (consumption rate),"[3]; hCD38, 25°C",negligible usage
same,use as substrate (consumption rate),[4],negligible usage
nicotinamide adenine dinucleotide phosphate [NADP],Km,[2]; substrate as labelled,384 ± 0.17 µM
same,Vmax,[2]; substrate as labelled,"20,043 ± 724 mU/mg"
same,Vmax,"[3]; hCD38, substrate as labelled",4376 ± 24.1 mU/mg
same,Km,"[3]; hCD38, substrate as labelled, 25°C, pH 7.5",11.7 ± 0.88 µM
same,rate,[5],3521 ±605 mU/mg
[Mg] [magnesium],effect of metal ion on activity,[2],no effect
same,effect of metal ion on activity,[3]; hCD38,no effect
same,effect of metal ion on activity,[4],no effect
"O=C(NCc1ccc[n+]([C@@H]2O[C@H](COP(=O)(O)O)[C@@H](O)[C@H]2O)c1)Nc1ccc([N+](=O)[O-])cc1 [VMN, vacor mononucleotide]","cyclization, share of products",[1]; [8],8.79%
same,"hydrolysis, share of products",[1]; [8],91.21%
same,rate,"[1]; hSARM1 full length +VMN 0.05 mM, NAD […] alone or + free base",210.1 ±14.4 mU/mg
same,rate (relative fold),"[1]; hSARM1 full length +VMN 0.05 mM, NAD […], relative to NAD alone without trigger",9.63 ±0.660 fold
same,"cyclization, share of products",[1]; [9],0.64%
same,"hydrolysis, share of products",[1]; [9],99.36%
same,rate,"[1]; hSARM1 full length +VMN 0.05 mM, NADP […] alone or + free base",138.3 ±1.72 mU/mg
same,rate (relative fold),"[1]; hSARM1 full length +VMN 0.05 mM, NADP […], relative to NADP alone without trigger",9.41 ±0.117 fold
same,increase of all hSARM1 activities by trigger (plateau),[1],8- to 10 fold
"Nc1ncnc2c1ncn2[C@@H]1O[C@H](COP(=O)(O)OP(=O)(O)OC[C@H]2O[C@@H]([n+]3cccc(C(=O)O)c3)[C@H](O)[C@@H]2O)[C@@H](O)[C@H]1O [NaAD, nicotinic acid adenine dinucleotide]",use as substrate (consumption rate),[2],negligible usage
same,use as substrate (consumption rate),"[3]; hCD38, 25°C",negligible usage
same,use as substrate (consumption rate),[4],negligible usage
"NC(=O)c1ccc[n+]([C@@H]2O[C@H](COP(=O)([O-])OP(=O)(O)OC[C@H]3O[C@@H](n4cnc5c(=O)[nH]c(N)nc54)[C@H](O)[C@@H]3O)[C@@H](O)[C@H]2O)c1 [NGD, nicotinamide guanine dinucleotide]","cyclization, share of total substrate consumption",[3]; CD38,~80%
[Cu+2] [copper],effect of metal ion on activity,[2],clear inhibition
same,effect of metal ion on activity,[3]; hCD38,clear inhibition
same,effect of metal ion on activity,[4],clear inhibition
[Zn+2] [zinc],effect of metal ion on activity,[2],clear inhibition
same,effect of metal ion on activity,[3]; hCD38,clear inhibition
same,effect of metal ion on activity,[4],clear inhibition
